In the supplement of paper PMC7695840:
Values joined by “and” are separate entries in the source; they are usually repeats but may differ in a detail not shown here. Identical values can stand only once. Counter-ions that a name gives are not always drawn.

Legend:
[1] = system: Staphylococcus aureus MW2 delta-mecA (mecA-); assay: IC50 (growth, competition assay); settings: cefoxitin: subinhibitory
In short: (§1)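 Pre-induced, 1:1-mixed fluorescent S. aureus MW2 mecA+ and ΔmecA strains were grown 20 h at 37 °C, 90% humidity, unshaken, in LB with a daily-set subinhibitory cefoxitin dose, in 1536-well plates. Compounds were given on five- or nine-point 2-fold gradients, in two dye-swapped replicates. DsRed (540/590) and GFP (485/520) were scaled per plate between single-strain control medians, with No Treatment then set to 0.5. Per-strain IC50 was the dose halving the No Treatment signal, or the maximal signal.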

[2] = system: Staphylococcus aureus MW2 (mecA+); assay: IC50 (growth, competition assay); settings: cefoxitin: subinhibitory
In short: as §1

SMILES | IC50 ([1]; fluorescent label: DsRed) | IC50 ([1]; fluorescent label: GFP) | IC50 ([2]; fluorescent label: DsRed) | IC50 ([2]; fluorescent label: GFP)
CO[C@H]1C[C@H](O[C@H]2[C@H](C)[C@@H](O[C@@H]3O[C@H](C)C[C@H](N(C)C)[C@H]3OC(C)=O)[C@@H](C)C[C@@]3(CO3)C(=O)[C@H](C)[C@@H](OC(C)=O)[C@@H](C)[C@@H](C)OC(=O)[C@@H]2C)O[C@@H](C)[C@@H]1OC(C)=O [EVRAMYCIN] | < 9.85 µM | < 9.85 µM | 33.7 µM | 27.8 µM
O=C(O[C@@H]1Cc2c(O)cc(O)cc2O[C@@H]1c1cc(O)c(=O)c2c(O)c(O)cc([C@H]3Oc4cc(O)cc(O)c4C[C@H]3OC(=O)c3cc(O)c(O)c(O)c3)c2c1)c1cc(O)c(O)c(O)c1 [THEAFLAVIN DIGALLATE] | 83.8 µM | 57.3 µM | > 150 µM | > 150 µM
O=C(Nc1ccccc1)Nc1ccc(-c2ccc(C(=O)[C@@H]3CCC[C@H]3C(=O)O)cc2)cc1 | < 9.85 µM | < 9.85 µM | 22.7 µM | 41.4 µM
O=C(O)c1ccccc1Nc1cccc(C(F)(F)F)c1 [ARLEF] | < 9.85 µM | 24.8 µM | 17.2 µM | 19 µM
CCOC(=O)[C@H](CCc1ccccc1)N[C@@H](C)C(=O)N1Cc2ccccc2C[C@H]1C(=O)O [ACCUPRIL] | > 150 µM | > 150 µM | > 150 µM | > 150 µM
O=C1NC(=O)/C(=C/c2ccc(-c3ccc(F)cc3O)o2)S1 | < 9.85 µM | < 9.85 µM | < 9.85 µM | < 9.85 µM and 13.8 µM
CC1(C)C=Cc2c(c3c(c4c(=O)c(-c5ccc(O)c(O)c5)coc24)OC(C)(C)CC3)O1 [ISOPOMIFERIN] | 11.8 µM | < 9.85 µM | 27 µM | 26.6 µM
CC(C)CCC[C@@H](C)[C@H]1CC[C@H]2[C@@H]3CC[C@H]4CC(=O)CC[C@]4(C)[C@H]3CC[C@]12C [CHOLESTAN-3-ONE] | 17.3 µM | 31.9 µM | > 150 µM | > 150 µM
C/C=C(/C(=C/C)c1ccc(O)cc1)c1ccc(O)cc1 [ESTRAGUARD] | 18.5 µM | < 9.85 µM | 30.7 µM | 52.9 µM
N[C@@H]1CCCN(c2c(/C=C3\SC(=O)NC3=O)cccc2-c2ccccc2)C1 [AZD1208] | 26.7 µM | 22.8 µM | 111 µM | 101 µM
Cn1nnnc1SCC1=C(C(=O)O)N2C(=O)[C@@H](NC(=O)[C@H](OC=O)c3ccccc3)[C@H]2SC1 [MANDOL] | < 9.85 µM | < 9.85 µM | 21.3 µM | 22.2 µM
O=C1[C@H](CC[C@H](O)c2ccc(F)cc2)[C@@H](c2ccc(O)cc2)N1c1ccc(F)cc1 [ZETIA] | 25.9 µM | 24.8 µM | 103 µM | 105 µM
CN[C@H](CC(C)C)C(=O)N[C@H]1C(=O)N[C@@H](CC(N)=O)C(=O)N[C@H]2C(=O)N[C@H]3C(=O)N[C@H](C(=O)N[C@H](C(=O)O)c4cc(O)cc(O)c4-c4cc3ccc4O)[C@H](O)c3ccc(c(Cl)c3)Oc3cc2cc(c3O[C@@H]2O[C@H](CO)[C@@H](O)[C@H](O)[C@H]2O[C@H]2C[C@](C)(N)[C@H](O)[C@H](C)O2)Oc2ccc(cc2Cl)[C@H]1O [Vancomycin HCl (Vancocin)] | < 9.85 µM | < 9.85 µM | < 9.85 µM | < 9.85 µM
O=C1C(Cl)=C(Cl)C(=O)C(Cl)=C1Cl [CHLORANIL] | 16 µM | 17.3 µM | 67.1 µM | 83.8 µM
O=c1[nH]cc(F)c(=O)[nH]1 [CARAC] | < 9.85 µM | < 9.85 µM | < 9.85 µM | < 9.85 µM
CC(=O)OC[C@H]1O[C@@H]([S-])[C@H](OC(C)=O)[C@@H](OC(C)=O)[C@@H]1OC(C)=O.CCP(CC)CC.[Au+] [Auranofin] | < 9.85 µM | < 9.85 µM | < 9.85 µM | < 9.85 µM
NC1CCN(c2c(F)cc3c(=O)c(C(=O)O)cn(C4CC4)c3c2Cl)C1 (configuration not stated) [CLINAFOXACIN HYDROCHLORIDE] | < 9.85 µM | < 9.85 µM | < 9.85 µM | < 9.85 µM
CCc1oc2ccccc2c1C(=O)c1cc(Br)c(O)c(Br)c1 [DESURIC] | < 9.85 µM | < 9.85 µM | < 9.85 µM | < 9.85 µM
CCCCCCCCCCCCCCCCC(C(=O)O)C(O)(CC(=O)O)C(=O)O (configuration not stated) [AGARIC ACID] | < 9.85 µM | < 9.85 µM | 12.8 µM | 20.6 µM
CCCCCCCCOc1ccccc1C(=O)Nc1ccc(C(=O)OCC[N+](C)(CC)CC)cc1 [Otilonium Bromide] | < 9.85 µM | < 9.85 µM | < 9.85 µM | < 9.85 µM
O=C(Nc1cc(C(F)(F)F)cc(C(F)(F)F)c1)c1cc(Cl)ccc1O [IMD0354] | < 9.85 µM | < 9.85 µM | < 9.85 µM | < 9.85 µM
O=C1c2ccccc2-c2nc3nonc3nc21 [SMER 3] | 20.4 µM | < 9.85 µM | 65.9 µM | > 150 µM
COc1ncc(-c2ccc3nccc(-c4ccnnc4)c3c2)cc1NS(=O)(=O)c1ccc(F)cc1F | < 9.85 µM | < 9.85 µM | < 9.85 µM | < 9.85 µM
O=C(O)c1cn(C2CC2)c2cc(N3CCNCC3)c(F)cc2c1=O [CIPRO] | < 9.85 µM | < 9.85 µM | < 9.85 µM | < 9.85 µM
CSc1ccc2c(c1)C(N1CCN(C)CC1)Cc1ccccc1S2 (configuration not stated) [METITEPINE MESYLATE] | 30.8 µM | 17.8 µM | 56.9 µM | 84.8 µM
CN1CCN(CCCN2c3ccccc3Sc3ccc(Cl)cc32)CC1 [COMPAZINE] | 34 µM | 56.6 µM | 139 µM | 56.7 µM
CCOC(=O)CCC(=O)O[C@H]1[C@H](O[C@@H]2[C@@H](C)[C@H](O[C@H]3C[C@@](C)(OC)[C@@H](O)[C@H](C)O3)[C@@H](C)C(=O)O[C@H](CC)[C@@](C)(O)[C@H](O)[C@@H](C)C(=O)[C@H](C)C[C@@]2(C)O)O[C@H](C)C[C@@H]1N(C)C [ERYPED] | < 9.85 µM | < 9.85 µM | < 9.85 µM | < 9.85 µM
CO/N=C1\CN(c2nc3c(cc2F)c(=O)c(C(=O)O)cn3C2CC2)CC1CN (configuration not stated) [FACTIVE] | < 9.85 µM | < 9.85 µM | < 9.85 µM | < 9.85 µM
